US20040044006A1, “Methods of use of quinolone compounds against pneumococcal and haemophilus bacteria” (priority 1999, published 2004)
In brackets after ≈: the same amount, converted by molar mass. Like-named read-outs stand apart in the source and are kept apart here.

How the values were obtained:
[1] = tested on: penicillin susceptible and resistant pneumococcal strains (2 quinolone resistant); assay: Time-kill testing of 12 pneumococcal strains; assay type: cell-based, Streptococcus pneumoniae; settings: 12 penicillin susceptible and resistant pneumococcal strains; 24 h; bactericidal = ≧3 log10 cfu/ml (99.9%) reduction
Method: For time-kill studies, glass tubes containing 5 ml cation-adjusted Mueller-Hinton broth (Difco)+5% lysed horse blood with doubling antibiotic concentrations were inoculated with 5×10^5 to 5×10^6 cfu/ml and incubated at 35° C. in a shaking water bath. […] Growth controls with inoculum but no antibiotic were included with each experiment (Pankuch, et al., Antimicrob. Agents Chemother. 38:2065-2072, 1994; Pankuch, et al., Antimicrob. Agents Chemother. 40:1653-1656, 1996).
Lysed horse blood was prepared as described previously. The bacterial inoculum was prepared by diluting a 16 h broth (medium as above) culture in the same medium. Dilutions required to obtain the correct inoculum (5×10^5-5×10^6 cfu/ml) were determined by prior viability studies using each strain (Pankuch, et al., Antimicrob. Agents Chemother. 38:2065-2072, 1994; Pankuch, et al., Antimicrob. Agents Chemother. 40: 1653-1656, 1996).
To inoculate each tube of serially diluted antibiotic, 50 μl of diluted inoculum was delivered by pipette beneath the surface of the broth. Tubes were then vortexed and plated for viability counts within 10 min (approximately 0.2 h). The original inoculum was determined by using the untreated growth control. Only tubes containing an initial inoculum within the range of 5×10^5 to 5×10^6 cfu/ml were acceptable (Pankuch, et al., Antimicrob. Agents Chemother. 38:2065-2072, 1994; Pankuch, et al., Antimicrob. Agents Chemother. 40:1653-1656, 1996).
Viability counts of antibiotic-containing suspensions were performed by plating ten-fold dilutions of 0.1 ml aliquots from each tube in sterile Mueller-t-Hinton broth onto trypticase soy agar 5% sheep blood agar plates (BBL). Recovery plates were incubated for up to 72 h. Colony Counts were performed on plates yielding 30-300 colonies. The lower limit of sensitivity of colony counts was 300 cfu/ml (Pankuch, et al., Antimicrob. Agents Chemother. 38:2065-2072, 1994; Pankuch, et al., Antimicrob. Agents Chemother. 40:1653-1656, 1996).
Time-kill assays were analysed by determining the number of strains which yielded a log10 cfu/ml of −1, −2 and −3 at 0, 3, 6, 12 and 24 h, compared to counts at time 0 h. Antimicrobials were considered bactericidal at the lowest concentration that reduced the original inoculum by ≧3 log10 cfu/ml (99.9%) at each of the time periods, and bacteriostatic if the inoculum was reduced by 0-3 log10 cfu/ml. […] The problem of bacterial carryover was addressed as described previously. For macrolide time-kill testing, only strains with MICs≦4.0 μg/ml were tested (Pankuch, et al., Antimicrob. Agents Chemother. 38:2065-9072, 1994; Pankuch, et al., Antimicrob. Agents Chemother. 40:1653-1656, 1996).

[2] = tested on: quinolone susceptible pneumococci (ciprofloxacin MICs ≦4.0 μg/ml); assay: Agar dilution MICs of 207 quinolone susceptible pneumococcal strains; assay type: cell-based, Streptococcus pneumoniae; settings: Streptococcus pneumoniae, agar dilution; for MIC90: read-out: MIC90; for MIC: read-out: MIC range
Method: All susceptible, and some intermediate and resistant strains, were recent U.S. isolates. The remainder of intermediate and resistant strains were isolated in South Africa, Spain, France, Central and Eastern Europe, and Korea. […] Additionally these strains were tested for mutations in parC, gyrA, parE, and gyrB (Pan, et al., Antimicrob. Agents Chemother. 40:2321-2326, 1996) and for efflux mechanism (Brenwald, et al., Antimicrob. Agents Chemother. 42:2032-2035, 1998). For time-kill studies, 4 penicillin susceptible, 4 intermediate and 4 resistant strains (2 quinolone resistant) were tested, while for PAE studies 5 quinolone susceptible and 1 resistant strains were studied.
(§1) Agar dilution methodology was performed on 234 strains as described previously (M. R. Jacobs, Clin. Infect. Dis. 15:119-127, 1992; Jacobs, et al., Rev. Med. Microbiol. 6:77-93, 1995), using Mueller-Hinton agar (BBL Microbiology Systems, Cockeysville, Md.) supplemented with 5% sheep blood. Broth MICs for 12 strains tested by time-kill and 6 tested by PAE were performed according to NCCLS recommendations (Methods for Dilution Antimicrobial Susceptibility Tests for Bacteria that Grow Aerobically, 3rd Edition, NCCLS, Villanova, Pa.) using cation-adjusted Mueller-Hinton broth with 5% lysed defibrinated horse blood. Standard quality control strains, including Streptococcus pneumoniae ATCC 49619, were included in each run of agar and broth dilution MICs.

pneumococcal strains = assay: Microbroth dilution MICs of strains tested by time-kill and PAE; assay type: cell-based; settings: Streptococcus pneumoniae, read-out: Microdilution MIC
Method: as §1

[3] = tested on: pneumococci (5 quinolone susceptible and 1 resistant strains); assay: Post-antibiotic effect (PAE) testing; assay type: cell-based, Streptococcus pneumoniae
Method: The post-antibiotic effect (PAE) (Craig, et al., V. Lorian (ed.) Antibiotics in Laboratory Medicine, Williams and Wilkins, Baltimore, pages 296-399, 1996) was determined by the viable plate count method, using Mueller-Hinton broth (MHB) supplemented with 5% lysed horse blood when testing pneumococci. […] Additionally, the one quinolone resistant strain was exposed at quinolone concentrations 5×MIC. Tubes containing 5 ml broth with antibiotic were inoculated with approximately 5×10^6 cfu/ml. Growth controls with inoculum but no antibiotic were included with each experiment. Tubes were placed in a shaking water bath at 35° C. for 1 h. At the end of the exposure period, cultures were diluted 1:1000 to remove antibiotic.
Viability counts were determined before exposure and immediately after dilution (0 h), and then every 2 h until tube turbidity reached a #1 McFarland standard. Inocula were prepared by suspending growth from an overnight blood agar plate in broth. The broth was incubated at 35° C. for 2-4 h in a shaking water bath until turbidity matched a #1 McFarland standard, and checked for viability by plate counts (Spangler, et al., Antimicrob. Agents Chemother. 41:2173-9176, 1997; Spangler, et al., Antimicrob. Agents Chemother. 42:1253-1255, 1998).
The PAE was defined as PAE=T-C; T=time required for viability counts of an antibiotic-exposed culture to increase by 1 log10 above counts immediately after dilution; C=corresponding time for growth control. For each experiment, viability counts (log10 cfu/ml) were plotted against time, and results expressed as the mean of two separate assays±S D (Craig, et al., V. Lorian (ed), Antibiotics in Laboratory Medicine, Williams and Wilkins, Baltimore, pages 296-329, 1996).

[4] = tested on: quinolone resistant pneumococci; assay: Determination of efflux mechanism: MICs in the presence and absence of reserpine; assay type: cell-based, Streptococcus pneumoniae
Method: MICs were determined in the presence and absence of 10 μg/ml of reserpine (Sigma Chemicals, St. Louis, Mo.) as known in the art.
MICs were determined in the presence and absence of […] of reserpine (Sigma Chemicals, St. Louis, Mo., USA) as described previously (Brenwald, et al., Antimicrob. Agents Chemother. 42:2039-2035, 1998 and Davies, et al., Antimicrob. Agents Chemother. 43:1177-1182S, 1999).

[5] = tested on: quinolone-resistant Haemophilus influenzae strains; assay: Microdilution MIC determination in HTM for quinolone-resistant Haemophilus influenzae strains; assay type: cell-based; settings: 9 quinolone-resistant Haemophilus influenzae strains
Method: Inocula were prepared from chocolate agar plates incubated for a full 24 hours by the direct colony suspension method as follows: In a tube of Mueller-Hinton broth (Difco), an organism suspension was made to a density of a 0.5 McFarland standard (1×10^8 CFU/ml). The latter inoculum was diluted in sterile saline such that final organisms suspensions in trays yielded colony counts of 3-8×10^5 CFU/ml. Frozen microdilution trays were obtained from MicroMedia Systems, Inc. (Cleveland, Ohio, USA). Each tray contained all antimicrobials prepared in freshly made HTM. Wells were inoculated with 100 μl suspensions and incubated in ambient air at 35° C. for 20-24 hours. The lowest drug concentration showing no growth was read as the MIC. Standard quality control strains, including H. influenzae ATCC 49766, H. influenzae ATCC 49247, Staphylococcus aureus ATCC 29213 and Escherichia coli ATCC 25922 were included with each run.

[6] = strain 1 (S) penicillin susceptible
[7] = strain 2 (S) penicillin susceptible
[8] = strain 3 (S) penicillin susceptible, quinolone-resistant
[9] = strain 4 (S) penicillin susceptible, quinolone-resistant
[10] = strain 5 (I) penicillin intermediate
[11] = strain 8 (I) penicillin intermediate
[12] = strain 9 (R) penicillin resistant
[13] = strain 11 (R) penicillin resistant
[14] = strain 12 (R) penicillin resistant
[15] = all 207 strains (64 penicillin susceptible, 68 intermediate, 75 resistant)

Row | Compound | MIC90 ([2]; Penicillin I strains) | MIC ([2]; Penicillin I strains) | MIC50 ([2]; Penicillin R strains) | MIC90 ([2]; Penicillin R strains) | MIC ([2]; Penicillin R strains) | MIC50 ([2]; Penicillin S strains) | MIC90 ([2]; Penicillin S strains) | MIC ([2]; Penicillin S strains) | MIC (pneumococcal strains; [6]) | MIC (pneumococcal strains; [7]) | MIC (pneumococcal strains; [8]) | MIC (pneumococcal strains; [9]) | MIC (pneumococcal strains; [10]) | MIC (pneumococcal strains; [11]) | MIC (pneumococcal strains; [12]) | MIC (pneumococcal strains; strain 10 (I)) | MIC (pneumococcal strains; [13]) | MIC (pneumococcal strains; [14]) | further results
1 | CC1(C)S[C@@H]2[C@H](NC(=O)[C@H](N)c3ccc(O)cc3)C(=O)N2[C@H]1C(=O)O [Amoxicillin, amoxicillin] | 1 mg/L (≈ 2.74 µM) | 0.016 to 4 mg/L (≈ 0.0438 to 10.9 µM) | 2 mg/L (≈ 5.47 µM) | 4 mg/L (≈ 10.9 µM) | 0.5 to 8 mg/L (≈ 1.37 to 21.9 µM) | 0.016 mg/L (≈ 0.0438 µM) | 0.06 mg/L (≈ 0.164 µM) | 0.008 to 0.25 mg/L (≈ 0.0219 to 0.684 µM) | 0.016 mg/L (≈ 0.0438 µM) | 0.016 mg/L (≈ 0.0438 µM) | 0.008 mg/L (≈ 0.0219 µM) | 0.008 mg/L (≈ 0.0219 µM) | 0.03 mg/L (≈ 0.0821 µM) | 0.06 mg/L (≈ 0.164 µM) | 1 mg/L (≈ 2.74 µM) | 1 mg/L (≈ 2.74 µM) | 2 mg/L (≈ 5.47 µM) | 2 mg/L (≈ 5.47 µM) | concentration at which bactericidal after 24 h [1]: 2 ×MIC; PAE for non-quinolone compounds ([3]; 10×MIC, range over strains): 0.3 to 5.8 h
2 | C[C@H]1COc2c(N3CCN(C)CC3)c(F)cc3c(=O)c(C(=O)O)cn1c23 [Levofloxacin, levofloxacin] | 2 mg/L (≈ 5.53 µM) | 0.5 to 4 mg/L (≈ 1.38 to 11.1 µM) | 1 mg/L (≈ 2.77 µM) | 2 mg/L (≈ 5.53 µM) | 1 to 2 mg/L (≈ 2.77 to 5.53 µM) | 1 mg/L (≈ 2.77 µM) | 2 mg/L (≈ 5.53 µM) | 0.125 to 4 mg/L (≈ 0.346 to 11.1 µM) | 2 mg/L (≈ 5.53 µM) | 1 mg/L (≈ 2.77 µM) | 32 mg/L (≈ 88.6 µM) | 32 mg/L (≈ 88.6 µM) | 1 mg/L (≈ 2.77 µM) | 1 mg/L (≈ 2.77 µM) | 2 mg/L (≈ 5.53 µM) | 2 mg/L (≈ 5.53 µM) | 1 mg/L (≈ 2.77 µM) | 2 mg/L (≈ 5.53 µM) | MIC50 ([2]; Penicillin I strains): 1 mg/L (≈ 2.77 µM); MIC50 [2, 15]: 1 mg/L (≈ 2.77 µM); MIC90 [2, 15]: 2 mg/L (≈ 5.53 µM); MIC (pneumococcal strains; strain 6 (I) penicillin intermediate): 2 mg/L (≈ 5.53 µM); MIC (pneumococcal strains; strain 7 (I) penicillin intermediate): 1 mg/L (≈ 2.77 µM); number of strains with lower MICs in the presence of reserpine ([4]; of 28 quinolone resistant strains, 10 μg/ml reserpine): 7 strains; Number of dilutions decrease after incubation with reserpine ([4]; strain 7): 2X; Number of dilutions decrease after incubation with reserpine ([4]; strain 11): 4X; Number of dilutions decrease after incubation with reserpine ([4]; strain 12): 2X; Number of dilutions decrease after incubation with reserpine ([4]; strain 23): 2X; Number of dilutions decrease after incubation with reserpine ([4]; strain 25): 2x X; Number of dilutions decrease after incubation with reserpine ([4]; strain 26): 2x X; Number of dilutions decrease after incubation with reserpine ([4]; strain 28): 4x X; PAE ([3]; 5×MIC, quinolone resistant strain): 1.3 h; PAE ([3]; 10×MIC for 1 h, range over 5 quinolone susceptible strains): 0.9 to 2.3 h; MIC50 [5]: 1 mg/L (≈ 2.77 µM); MIC Range [5]: 0.25 to 4.0 mg/L
